What was measured:
[1] = target: T1, urotensin II receptor on TE-671 rhabdomyosarcoma cells (Homo sapiens, UniProt Q9UKP6); experiment: Inhibition of human [125I]-urotensin II binding to a rhabdomyosarcoma cell line (whole cell binding); details: TE-671 whole cells, 20 pM human [125I]urotensin II, 4 h at 20° C.
T1 construct: host or cells: TE-671 rhabdomyosarcoma cells
T1 sequence (Q9UKP6 1-389): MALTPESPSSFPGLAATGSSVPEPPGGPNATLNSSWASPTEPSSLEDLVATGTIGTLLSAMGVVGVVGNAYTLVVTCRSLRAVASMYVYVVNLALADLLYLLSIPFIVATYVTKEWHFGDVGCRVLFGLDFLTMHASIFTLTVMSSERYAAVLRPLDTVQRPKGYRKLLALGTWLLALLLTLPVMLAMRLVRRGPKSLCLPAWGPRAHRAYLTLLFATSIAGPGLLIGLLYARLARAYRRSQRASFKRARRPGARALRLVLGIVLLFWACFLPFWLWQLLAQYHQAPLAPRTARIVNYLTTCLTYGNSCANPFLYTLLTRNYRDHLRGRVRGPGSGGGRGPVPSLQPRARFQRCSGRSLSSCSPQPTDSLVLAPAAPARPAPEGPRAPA
Procedure: 1) Inhibition of Human [125I]-urotensin II Binding to a Rhabdomyosarcoma Cell Line
Whole cell binding of human [^125I]-urotensin II is performed using human-derived TE-671 rhabdomyosarcoma cells (Deutsche Sammlung von Mikroorganismen und Zellkulturen, cell line #ACC-263), by methods adapted from a whole cell endothelin binding assay (Breu V et al., In vitro characterization of Ro-46-2005, a novel synthetic non-peptide antagonist of ETA and ETB receptors. FEBS Lett. 1993, 334, 210-214).
The assay is performed in 250 μL Dubecco's modified eagle medium, pH 7.4 (GIBCO BRL, CatNo 31885-023), including 25 mM HEPES (Fluka, CatNo 05473), 1.0% DMSO (Fluka, CatNo 41644) and 0.5% (w/v) BSA Fraction V (Fluka, CatNo 05473) in polypropylene microtiter plates (Nunc, CatNo 442587). 300,000 suspended cells are incubated with gentle shaking for 4 h at 20° C. with 20 pM human [^125I]Urotensin II (Anawa Trading SA, Wangen, Switzerland, 2130 Ci/mmol) and increasing concentrations of unlabeled antagonist. Minimum and maximum binding are derived from samples with and without 100 nM unlabelled U-II, respectively. After the 4 h incubation period, the cells are filtered onto GF/C filter plates (Packard, CatNo 6005174). The filter plates are dried, and then 50 μL scintillation cocktail (Packard, MicroScint 20, CatNo 6013621) is added to each well. The filter plates are counted in a microplate counter (Packard Bioscience, TopCount NXT).
All test compounds are dissolved and diluted in 100% DMSO. A […] dilution into assay buffer is performed prior to addition to the assay. […] Specific binding is the difference between maximum binding and minimum binding, as described above.

isolated rat aortic arch = details: for pD2′ (functional inhibitory potency): Wistar rat aortic arch rings, 20 min incubation with test compound before cumulative doses of human urotensin II
Procedure: 2) Inhibition of Human Urotensin II-Induced Contractions of Isolated Rat Aortic Arch Adult Wistar rats are anesthetized (CO2 inhalation) and exsanguinated. The aortic arch is excised, dissected and cut in 3 rings of 3 mm, ring #1 being the more proximal and ring #3 being the more distal. Each ring is suspended in a 10 mL isolated organ bath filled with Krebs-Henseleit solution (in mM; NaCl 115, KCl 4.7, MgSO4 1.2, KH2PO4 1.5, NaHCO3 25, CaCl2 2.5, glucose 10; pH 7.4) kept at 37° C. and gassed with 95% O2 and 5% CO2. The rings are connected to force transducers and isometric tension is recorded (EMKA Technologies SA, Paris, France). The rings are stretched to a resting tension of 3 g. […] The functional inhibitory potency of the test compound is assessed by calculating the pD2′ according to the formula: pD2′=Log (CR-1)-Log [B], where CR is the ratio of the maximal effect without/with antagonist and [B] the concentration of the antagonist.

SMILES	IC50 [1] [nM]	pD2′ (functional inhibitory potency) (isolated rat aortic arch)	EC50 (isolated rat aortic arch) [nM]
COc1cc2c(cc1OC)C(CCc1cc(F)ccc1F)N(CCNC(=O)Nc1cc(C)nc3ccccc13)CC2 (stereo not shown) [Example 20, 1-(2-{1-[2-(2,5-Difluoro-phenyl)-ethyl]-6,7-dimethoxy-3,4-dihydro-1H-isoquinolin-2-yl}-ethyl)-3-(2-methyl-quinolin-4-yl)-urea]	67	–	–
COc1ccc(CCC2c3cc(OC)c(OC)cc3CCN2CCNC(=O)Nc2cc(C)nc3ccccc23)cc1OC (stereo not shown) [Example 22, 1-(2-{1-[2-(3,4-Dimethoxy-phenyl)-ethyl]-6,7-dimethoxy-3,4-dihydro-1H-isoquinolin-2-yl}-ethyl)-3-(2-methyl-quinolin-4-yl)-urea]	63	–	–
COc1cc2c(cc1OC)C(CCc1ccccc1)N(CCNC(=O)Nc1cc(C)nc3ccccc13)CC2 (stereo not shown) [Example 29, 1-[2-(6,7-Dimethoxy-1-phenethyl-3,4-dihydro-1H-isoquinolin-2-yl)-ethyl]-3-(2-methyl-quinolin-4-yl)-urea]	125	5.23	–
COc1cc2c(c(OC)c1)C(Cc1ccc(OC)c(OC)c1)N(CCNC(=O)Nc1cc(C)nc3ccccc13)CC2 (stereo not shown) [Example 58, 1-{2-[1-(3,4-Dimethoxy-benzyl)-6,8-dimethoxy-3,4-dihydro-1H-isoquinolin-2-yl]-ethyl}-3-(2-methyl-quinolin-4-yl)-urea]	550	–	–
COc1ccc(CC2c3c(OC)ccc(OC)c3CCN2CCNC(=O)Nc2ccnc3ccccc23)cc1OC (stereo not shown) [Example 93, 1-{2-[1-(3,4-Dimethoxy-benzyl)-5,8-dimethoxy-3,4-dihydro-1H-isoquinolin-2-yl]-ethyl}-3-quinolin-4-yl-urea]	–	5.45	–
CC(C)[C@H](NC(=O)[C@@H]1CSSC[C@H](NC(=O)[C@H](CC(=O)O)NC(=O)[C@@H]2CCCN2C(=O)[C@@H](NC(=O)[C@@H](N)CCC(=O)O)[C@@H](C)O)C(=O)N[C@@H](Cc2ccccc2)C(=O)N[C@@H](Cc2c[nH]c3ccccc23)C(=O)N[C@@H](CCCCN)C(=O)N[C@@H](Cc2ccc(O)cc2)C(=O)N1)C(=O)O [human U-II, reference compound]	–	–	1.09 ± 0.1

Reference: patent publication US6815451B2, “1,2,3,4-Tetrahydroisoquinolines derivatives as urotensin II receptor antagonists” (Actelion Pharmaceuticals Ltd., priority 2001, dated 2004)
